Source: ChEMBL document CHEMBL1132079, “Combined NK1 and NK2 tachykinin receptor antagonists: synthesis and structure-activity relationships of novel oxazolidine analogues” (Bioorg Med Chem Lett, 1999)

target: T1, Substance-K receptor (Cavia porcellus, UniProt Q64077); assay: Inhibitory activity against Neurokinin 2 (NK2) receptor from guinea pig ileum; assay type: tissue-based; settings: not given
T1 sequence (Q64077 whole entry): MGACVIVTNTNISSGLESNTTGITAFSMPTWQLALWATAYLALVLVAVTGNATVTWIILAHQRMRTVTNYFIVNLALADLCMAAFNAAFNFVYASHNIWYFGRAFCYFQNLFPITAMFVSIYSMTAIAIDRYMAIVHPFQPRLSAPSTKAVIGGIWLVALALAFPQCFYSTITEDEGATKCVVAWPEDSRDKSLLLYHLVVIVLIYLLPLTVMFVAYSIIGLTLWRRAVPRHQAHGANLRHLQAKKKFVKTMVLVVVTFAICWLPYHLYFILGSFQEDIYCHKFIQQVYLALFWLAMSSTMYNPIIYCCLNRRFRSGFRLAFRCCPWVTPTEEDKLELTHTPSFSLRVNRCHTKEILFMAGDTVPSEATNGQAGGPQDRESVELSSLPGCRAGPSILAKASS

Row | Structure (SMILES) | IC50
1 | COc1ccc(C(=O)N2CO[C@](CCN3CCC(C(N)=O)(c4ccccc4)CC3)(c3ccc(Cl)c(Cl)c3)C2)cc1 | 292 nM
2 | COc1cc(C(=O)N2CO[C@](CCN3CCC(C(=O)N(C)C)(c4ccccc4)CC3)(c3ccc(F)c(F)c3)C2)cc(OC)c1OC | 20.4 nM
3 | COc1cc(C(=O)N2CO[C@](CCN3CCC(O)(c4ccncc4)CC3)(c3ccc(Cl)c(Cl)c3)C2)cc(OC)c1OC | 144 nM
4 | COc1cc(C(=O)N2CO[C@](CCN3CCC4(CC3)NC(=O)Cc3ccccc34)(c3ccc(Cl)cc3)C2)cc(OC)c1OC | 5.16 nM
5 | COc1cc(C(=O)N2CO[C@](CCN3CCC4(CC3)c3ccccc3C[S+]4[O-])(c3ccc(F)c(F)c3)C2)cc(OC)c1OC (some centres not stated) | 30.3 nM
6 | COc1cc(C(=O)N2CO[C@](CCN3CCC4(CC3)c3ccccc3C[S+]4[O-])(c3ccc(Cl)cc3)C2)cc(OC)c1OC (some centres not stated) | 11 nM
7 | COc1cc(C(=O)N2CO[C@](CCN3CCC4(CC3)c3ccccc3C[S+]4[O-])(c3ccc(Cl)c(Cl)c3)C2)cc(OC)c1OC (some centres not stated) | 11.4 nM
8 | COc1cc(C(=O)N2CO[C@](CCCN3CCC(C(N)=O)(c4ccccc4)CC3)(c3ccc(Cl)c(Cl)c3)C2)cc(OC)c1OC | > 1520 nM
9 | COc1cc(C(=O)N2CO[C@](CCN3CCC(C(N)=O)(c4ccccc4)CC3)(c3ccc(Cl)c(Cl)c3)C2)cc(OC)c1OC | 142 nM
10 | COc1cc(C(=O)N2CO[C@](CCN3CCC4(CC3)c3ccccc3C[S+]4[O-])(c3ccc(F)cc3)C2)cc(OC)c1OC (some centres not stated) | 34.5 nM
11 | COc1cc(C(=O)N2CO[C@](CCN3CCC(C(=O)N(C)C)(c4ccccc4)CC3)(c3ccc(F)cc3)C2)cc(OC)c1OC | 15 nM
12 | COc1cc(C(=O)N2CO[C@](CCN3CCC4(CC3)NC(=O)Cc3ccccc34)(c3ccc(F)c(F)c3)C2)cc(OC)c1OC | 10.9 nM
13 | COc1cc(C(=O)N2CO[C@](CCN3CCC4(CC3)C(=O)N(C)c3ccccc34)(c3ccc(Cl)c(Cl)c3)C2)cc(OC)c1OC | 51.9 nM
14 | COc1cc(C(=O)N2CO[C@](CCN3CCC(C(N)=O)(c4ccccc4)CC3)(c3ccc(F)c(F)c3)C2)cc(OC)c1OC | 328 nM
15 | COc1cc(C(=O)N2CO[C@](CCN3CCC(C(=O)N(C)C)(c4ccccc4)CC3)(c3ccc(Cl)c(Cl)c3)C2)cc(OC)c1OC | 8.2 nM
16 | COc1cc(C(=O)N2CO[C@](CCN3CCN(c4ccc(C(C)=O)cc4)CC3)(c3ccc(Cl)c(Cl)c3)C2)cc(OC)c1OC | 115 nM
17 | COc1cc(C(=O)N2CO[C@](CCN3CCC(C(N)=O)(c4ccccc4)CC3)(c3ccc(F)cc3)C2)cc(OC)c1OC | 744 nM
18 | NC(=O)C1(c2ccccc2)CCN(CC[C@@]2(c3ccc(Cl)c(Cl)c3)CN(C(=O)c3cc(C(F)(F)F)cc(C(F)(F)F)c3)CO2)CC1 | 160 nM
19 | COc1cc(C(=O)N2CO[C@](CCN3CCC4(CC3)NC(=O)Cc3ccccc34)(c3ccc(F)cc3)C2)cc(OC)c1OC | 10.3 nM
20 | COc1cc(C(=O)N2CO[C@](CCN3CCC4(CC3)c3ccccc3CS4(=O)=O)(c3ccc(Cl)c(Cl)c3)C2)cc(OC)c1OC | 28.1 nM
21 | COc1cc(C(=O)N2CO[C@](CCN3CCC(C(N)=O)(c4ccccc4)CC3)(c3ccc(Cl)cc3)C2)cc(OC)c1OC | 329 nM
22 | COc1cc(C(=O)N2CO[C@](CCN3CCC(C(=O)N4CCCC4)(c4ccccc4)CC3)(c3ccc(Cl)c(Cl)c3)C2)cc(OC)c1OC | 91.9 nM
23 | COc1cc(C(=O)N2CO[C@](CCN3CCC4(CC3)NC(=O)Cc3ccccc34)(c3ccc(Cl)c(Cl)c3)C2)cc(OC)c1OC | 4.58 nM
24 | COc1cc(C(=O)N2CO[C@](CCN3CCC(C(=O)N(C)C)(c4ccccc4)CC3)(c3ccc(Cl)cc3)C2)cc(OC)c1OC | 7.39 nM
25 | COc1cc(C(=O)N2CO[C@](CCN3CCC(C(=O)N4CCOCC4)(c4ccccc4)CC3)(c3ccc(Cl)c(Cl)c3)C2)cc(OC)c1OC | 73 nM
26 | COc1cc(C(=O)N2CO[C@](CCN3CCC4(CC3)C[S+]([O-])c3ccccc34)(c3ccc(Cl)c(Cl)c3)C2)cc(OC)c1OC (some centres not stated) | 11.1 nM

tested on: Cavia porcellus; assay: In vivo inhibitory activity against [Nle10] ]-NKA[4-10]-induced bronchoconstriction in guinea pig after iv administration; assay type: functional; settings: read-out: ID50 (the source's name)

Row | Structure (SMILES) | ED50
27 | COc1cc(C(=O)N2CO[C@](CCN3CCC4(CC3)c3ccccc3C[S+]4[O-])(c3ccc(Cl)c(Cl)c3)C2)cc(OC)c1OC (some centres not stated) | 0.074 mg/kg

target: Substance-P receptor (Cavia porcellus, UniProt P30547); assay: Inhibitory activity against Neurokinin 1 (NK1) receptor from guinea pig lung; settings: not given
Sequence (P30547 whole entry): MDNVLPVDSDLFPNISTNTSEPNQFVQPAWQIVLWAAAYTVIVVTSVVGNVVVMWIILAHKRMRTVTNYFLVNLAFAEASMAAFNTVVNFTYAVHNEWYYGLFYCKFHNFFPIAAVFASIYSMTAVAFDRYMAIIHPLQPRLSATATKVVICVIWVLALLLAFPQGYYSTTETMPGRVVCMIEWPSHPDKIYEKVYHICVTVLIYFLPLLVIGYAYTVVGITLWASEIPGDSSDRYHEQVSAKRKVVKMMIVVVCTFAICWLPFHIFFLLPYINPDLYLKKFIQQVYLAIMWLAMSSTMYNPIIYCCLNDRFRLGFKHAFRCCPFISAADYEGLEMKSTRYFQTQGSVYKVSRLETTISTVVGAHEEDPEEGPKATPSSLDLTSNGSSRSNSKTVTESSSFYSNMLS

Row | Structure (SMILES) | IC50
28 | COc1ccc(C(=O)N2CO[C@](CCN3CCC(C(N)=O)(c4ccccc4)CC3)(c3ccc(Cl)c(Cl)c3)C2)cc1 | 112 nM
29 | COc1cc(C(=O)N2CO[C@](CCN3CCC(C(=O)N(C)C)(c4ccccc4)CC3)(c3ccc(F)c(F)c3)C2)cc(OC)c1OC | 42.3 nM
30 | COc1cc(C(=O)N2CO[C@](CCN3CCC(O)(c4ccncc4)CC3)(c3ccc(Cl)c(Cl)c3)C2)cc(OC)c1OC | 3.08 nM
31 | COc1cc(C(=O)N2CO[C@](CCN3CCC4(CC3)NC(=O)Cc3ccccc34)(c3ccc(Cl)cc3)C2)cc(OC)c1OC | 82.2 nM
32 | COc1cc(C(=O)N2CO[C@](CCN3CCC4(CC3)c3ccccc3C[S+]4[O-])(c3ccc(F)c(F)c3)C2)cc(OC)c1OC (some centres not stated) | 25.5 nM
33 | COc1cc(C(=O)N2CO[C@](CCN3CCC4(CC3)C(=O)NCN4c3ccccc3)(c3ccc(Cl)c(Cl)c3)C2)cc(OC)c1OC | 7.47 nM
34 | COc1cc(C(=O)N2CO[C@](CCN3CCC4(CC3)c3ccccc3C[S+]4[O-])(c3ccc(Cl)cc3)C2)cc(OC)c1OC (some centres not stated) | 19.2 nM
35 | COc1cc(C(=O)N2CO[C@](CCN3CCC4(CC3)c3ccccc3C[S+]4[O-])(c3ccc(Cl)c(Cl)c3)C2)cc(OC)c1OC (some centres not stated) | 10.2 nM
36 | COc1cc(C(=O)N2CO[C@](CCCN3CCC(C(N)=O)(c4ccccc4)CC3)(c3ccc(Cl)c(Cl)c3)C2)cc(OC)c1OC | 35 nM
37 | COc1cc(C(=O)N2CO[C@](CCN3CCC(C(N)=O)(c4ccccc4)CC3)(c3ccc(Cl)c(Cl)c3)C2)cc(OC)c1OC | 9.65 nM
38 | COc1cc(C(=O)N2CO[C@](CCN3CCC4(CC3)c3ccccc3C[S+]4[O-])(c3ccc(F)cc3)C2)cc(OC)c1OC (some centres not stated) | 24.6 nM
39 | COc1cc(C(=O)N2CO[C@](CCN3CCC(C(=O)N(C)C)(c4ccccc4)CC3)(c3ccc(F)cc3)C2)cc(OC)c1OC | 27.4 nM
40 | COc1cc(C(=O)N2CO[C@](CCN3CCC4(CC3)NC(=O)Cc3ccccc34)(c3ccc(F)c(F)c3)C2)cc(OC)c1OC | 45 nM
41 | COc1cc(C(=O)N2CO[C@](CCN3CCC4(CC3)C(=O)N(C)c3ccccc34)(c3ccc(Cl)c(Cl)c3)C2)cc(OC)c1OC | 14.1 nM
42 | COc1cc(C(=O)N2CO[C@](CCN3CCC(C(N)=O)(c4ccccc4)CC3)(c3ccc(F)c(F)c3)C2)cc(OC)c1OC | 16.4 nM
43 | COc1cc(C(=O)N2CO[C@](CCN3CCC(C(=O)N(C)C)(c4ccccc4)CC3)(c3ccc(Cl)c(Cl)c3)C2)cc(OC)c1OC | 25.3 nM
44 | COc1cc(C(=O)N2CO[C@](CCN3CCN(c4ccc(C(C)=O)cc4)CC3)(c3ccc(Cl)c(Cl)c3)C2)cc(OC)c1OC | 28 nM
45 | COc1cc(C(=O)N2CO[C@](CCN3CCC(C(N)=O)(c4ccccc4)CC3)(c3ccc(F)cc3)C2)cc(OC)c1OC | 45.6 nM
46 | NC(=O)C1(c2ccccc2)CCN(CC[C@@]2(c3ccc(Cl)c(Cl)c3)CN(C(=O)c3cc(C(F)(F)F)cc(C(F)(F)F)c3)CO2)CC1 | 145 nM
47 | COc1cc(C(=O)N2CO[C@](CCN3CCC(C(=O)NCc4ccccc4)CC3)(c3ccc(Cl)c(Cl)c3)C2)cc(OC)c1OC | 92.9 nM
48 | COc1cc(C(=O)N2CO[C@](CCN3CCC4(CC3)NC(=O)Cc3ccccc34)(c3ccc(F)cc3)C2)cc(OC)c1OC | 48 nM
49 | COc1cc(C(=O)N2CO[C@](CCN3CCC4(CC3)c3ccccc3CS4(=O)=O)(c3ccc(Cl)c(Cl)c3)C2)cc(OC)c1OC | 34 nM
50 | COc1cc(C(=O)N2CO[C@](CCN3CCC(C(N)=O)(c4ccccc4)CC3)(c3ccc(Cl)cc3)C2)cc(OC)c1OC | 44.4 nM
51 | COc1cc(C(=O)N2CO[C@](CCN3CCC(C(=O)N4CCCC4)(c4ccccc4)CC3)(c3ccc(Cl)c(Cl)c3)C2)cc(OC)c1OC | 11.2 nM
52 | COc1cc(C(=O)N2CO[C@](CCN3CCC4(CC3)NC(=O)Cc3ccccc34)(c3ccc(Cl)c(Cl)c3)C2)cc(OC)c1OC | 18.3 nM
53 | COc1cc(C(=O)N2CO[C@](CCN3CCC(C(=O)N(C)C)(c4ccccc4)CC3)(c3ccc(Cl)cc3)C2)cc(OC)c1OC | 78.6 nM
54 | COc1cc(C(=O)N2CO[C@](CCN3CCC(C(=O)N4CCOCC4)(c4ccccc4)CC3)(c3ccc(Cl)c(Cl)c3)C2)cc(OC)c1OC | 44.9 nM
55 | COc1cc(C(=O)N2CO[C@](CCN3CCC4(CC3)C[S+]([O-])c3ccccc34)(c3ccc(Cl)c(Cl)c3)C2)cc(OC)c1OC (some centres not stated) | 8.94 nM

target: T2, Substance-K receptor (Cavia porcellus) (UniProt Q64077); assay: Antagonist activity against Neurokinin 2 (NK2) receptor from guinea pig ileum at a concentration of 1 ug/mL; assay type: functional, tissue-based; settings: not given
T2 sequence (whole entry): T1 sequence (Q64077 whole entry)

Row | Structure (SMILES) | inhibition
56 | COc1cc(C(=O)N2CO[C@](CCN3CCC(C(=O)NCc4ccccc4)CC3)(c3ccc(Cl)c(Cl)c3)C2)cc(OC)c1OC | 64%

tested on: Cavia porcellus; assay: In vivo inhibitory activity against SP-induced vascular hyperpermeability in guinea pig after iv administration; assay type: functional; settings: read-out: ID50 (the source's name)

Row | Structure (SMILES) | ED50
57 | COc1cc(C(=O)N2CO[C@](CCN3CCC4(CC3)c3ccccc3C[S+]4[O-])(c3ccc(Cl)c(Cl)c3)C2)cc(OC)c1OC (some centres not stated) | 0.025 mg/kg
